The values that follow come from patent US7563570B2, “Method of determining a chemotherapeutic regimen for non small cell lung cancer based on BRCA1 expression” (Pangaea Biotech, priority 2004, dated 2009).

In assay [1] the test system is breast cancer cell line. To be noted: BRCA1 mRNA determined by RT-QPCR; cited from earlier work.
Assay [2] relates to SKOV-3 human ovarian cancer cell line. As to conditions: cited from earlier work.
The test system of assay [3] is HCC1937 breast cancer cell line. To be noted: HCC1937, BRCA1 reconstituted vs BRCA1-negative; cited from earlier work.
In assay [4] the test system is Mouse models carrying conditional disruption of BRCA1. To be noted: cited from earlier work.
Assay [5] concerns non-small-cell lung cancer (NSCLC) patients. Put plainly: Neoadjuvant gemcitabine/cisplatin followed by surgery in stage IIB, IIIA and IIIB NSCLC patients, outcome by quartile of tumor BRCA1 mRNA expression. In kind it is in vivo, human. The procedure:
In all patients, neoadjuvant chemotherapy was indicated after evaluation by a thoracic surgeon, a radiologist, a medical oncologist, and a radiation oncologist. Patients received three cycles of neoadjuvant chemotherapy; 51 received cisplatin 100 mg/m^2 day 1 plus gemcitabine 1250 mg/m^2 days 1 and 8 every 21 days, and four received carboplatin AUC=5 day 1 plus gemcitabine 1000 mg/m^2 days 1 and 8 every 21 days. A thoracotomy was performed within four to five weeks after the last chemotherapy cycle; the surgical procedure was based on the extent of tumor at the time of the initial presentation.
We examined BRCA1 gene expression in formalin-fixed, paraffin-embedded surgical resected specimens from the 55 patients as previously described: Specht K, et al. (2001) Am. J. Pathol., 158, 419-429: “Quantitative gene expression analysis in microdissected archival formalin-fixed and paraffin-embedded tumor tissue”; Krafft A E, et al. (1997) Mol. Diagn., 3, 217-230: “Optimization of the isolation and amplification of RNA from formalin fixed, paraffin-embedded tissue: The Armed Forces Institute of Pathology experience and literature review”. After standard tissue sample deparaffinization using xylene and alcohols, samples were lysed in a tris-chloride, EDTA, sodium dodecyl sulphate (SDS) and proteinase K containing buffer. RNA was then extracted with phenol-chloroform-isoamyl alcohol followed by precipitation with isopropanol in the presence of glycogen and sodium acetate. RNA was resuspended in RNA storage solution (Ambion Inc; Austin Tex., USA) and treated with DNAse I to avoid DNA contamination. cDNA was synthesized using M-MLV retrotranscriptase enzyme. Template cDNA was added to Taqman Universal Master Mix (AB; Applied Biosystems, Foster City, Calif., USA) in a 12.5-μl reaction with specific primers and probe for each gene. The primer and probe sets were designed using Primer Express 2.0 Software (AB). Quantification of gene expression was performed using the ABI Prism 7900HT Sequence Detection System (AB). Primers and probe for BRCA1 mRNA expression analysis were designed according to the Ref Seq NM_007294 (www.ncbi.nlm.nih.gov/LocusLink). Forward primer is located in exon 8 (position 4292 bp to 4317 bp), reverse primer in exon 9 (position 4336 bp to 4360 bp), and probe in the exon 8/9 junction (position 4313 bp to 4333 bp). The PCR product size generated with these primers was 69 bp. The primers and 5′ labeled fluorescent reporter dye (6FAM) probe were as follows: β-actin: forward 5′ TGA GCG CGG CTA CAG CTT 3′, reverse 5′ TCCTTAATGTCACGCACGATTT 3′, probe 5′ ACC ACC ACG GCC GAG CGG 3′; BRCA1: forward 5′GGCTATCCTCTCAGAGTGACATTTTA 3′, reverse 5′ GCTTTATCAGGTTATGTTGCATGGT 3′, probe 5′ CCA CTC AGC AGA GGG 3′.
Relative gene expression quantification was calculated according to the comparative Ct method using β-actin as an endogenous control and commercial RNA controls (Stratagene, La Jolla, Calif.) as calibrators. Final results, were determined as follows: 2^−(ΔCt sample−ΔCt calibrator), where ΔCT values of the calibrator and sample are determined by subtracting the CT value of the target gene from the value of the β-actin gene. In all experiments, only triplicates with a standard deviation (SD) of the Ct value <0.20 were accepted. In addition, for each sample analyzed, a retrotranscriptase minus control was run in the same plate to assure lack of genomic DNA contamination (FIG. 1).
In order to provide an easily interpretable evaluation of the effect of BRCA1 mRNA expression, gene expression values were divided into quartiles. Interpatient variation coefficients were calculated to assess similarities between quartiles. Hazard ratios were calculated with the univariate Cox model, and comparison between Kaplan-Meier survival curves was performed with the log-rank test. […]

[6] abbreviates: bottom quartile of BRCA1 levels.
Where [7] appears, read: bottom quartile of BRCA1 levels, listed as Gemcitabine/Cisplatin.
[8] abbreviates: middle quartiles of BRCA1 levels.
[9] abbreviates: middle quartiles of BRCA1 levels, listed as Gemcitabine/Cisplatin.
Setting [10] is: top quartile of BRCA1 levels, listed as Gemcitabine/Cisplatin.

Consider `COc1cc([C@@H]2c3cc4c(cc3[C@@H](O[C@@H]3O[C@@H]5CO[C@@H](C)O[C@H]5[C@H](O)[C@H]3O)[C@H]3COC(=O)[C@H]23)OCO4)cc(OC)c1O` [etoposide], for which, in assay [1], the “Change of drug sensitivity on decreased BRCA1 mRNA expression” value is on record as “greater sensitivity”.
Turning to `N.N.[Cl][Pt][Cl]` [cisplatin, cis-diaminodichloroplatinum], the “Change of drug resistance on upregulation of BRCA1 expression” value in assay [2] was “increased cisplatin resistance”. Moreover, the “Increase in resistance on reconstitution of wild-type BRCA1” value in assay [3] is 20 fold. Further, the “Change of drug sensitivity on decreased BRCA1 mRNA expression” value in assay [1] was “greater sensitivity”.
Regarding `CC/C(=C(\c1ccccc1)c1ccc(OCCN(C)C)cc1)c1ccccc1` [tamoxifen], the “Sensitivity of BRCA1-disrupted mouse models” value in assay [4] is on record as “resistant”.
As for `CC(=O)O[C@H]1C(=O)[C@@]2(C)[C@H]([C@H](OC(=O)c3ccccc3)[C@]3(O)C[C@H](OC(=O)[C@H](O)[C@@H](NC(=O)c4ccccc4)c4ccccc4)C(C)=C1C3(C)C)[C@]1(OC(C)=O)CO[C@@H]1C[C@@H]2O` [paclitaxel], the “Change of drug sensitivity on decreased BRCA1 mRNA expression” value in assay [1] was “greater resistance”.
Take `CC[C@]1(O)C[C@H]2CN(CCc3c([nH]c4ccccc34)[C@@](C(=O)OC)(c3cc4c(cc3OC)N(C=O)[C@H]3[C@@](O)(C(=O)OC)[C@H](OC(C)=O)[C@]5(CC)C=CCN6CC[C@]43[C@@H]65)C2)C1` [vincristine]: the “Change of drug sensitivity on decreased BRCA1 mRNA expression” value in assay [1] is reported as “greater resistance”.
For gemcitabine/cisplatin, in assay [5] (all in the bottom quartile of BRCA1 levels), the “Patients who attained a complete pathologic response (T0N0)” value is “Five”. The Median survival is given as 37.8 months in assay [5] (all patients); “not reached” in assay [5] (bottom quartile of BRCA1 mRNA levels (0.28-0.61), 15 patients); 51.9 months in assay [5] (patients who underwent lobectomy); 25.8 months in assay [5] (patients who underwent pneumonectomy); 12.7 months in assay [5] (top quartile of BRCA1 mRNA levels (2.45-10.43), 12 patients); 37.8 months in assay [5] (two middle quartiles of BRCA1 mRNA levels (0.65-2.37), 28 patients). Moreover, the “Risk of death, hazard ratio” value in assay [5] (bottom quartile compared to top quartile, unstratified) was 0.187; in assay [5] (stratified by clinical stage, bottom quartile compared to top quartile), 0.220; in assay [5] (stratified by clinical stage, two middle quartiles compared to top quartile), 0.430; in assay [5] (stratified by pathologic stage, bottom quartile compared to top quartile) it was 0.206; in assay [5] (stratified by pathologic stage, two middle quartiles compared to top quartile), 0.294; in assay [5] (two middle quartiles compared to top quartile, unstratified), 0.382. Further, the “Radiographic Response: Partial Response” value in assay [5] (setting [6]) is reported as 66.7%; in assay [5] (setting [7]) it was “(66.7) %”; in assay [5] (setting [8]) it was 57.1%; in assay [5] (setting [9]) it was “(57.1) %”; in assay [5] (top quartile of BRCA1 levels) it was 58.3%; in assay [5] (setting [10]), “(58.3) %”. The results for the “Radiographic Response: Stable Disease” value in assay [5] (setting [6]), in assay [5] (setting [8]) and in assay [5] (top quartile of BRCA1 levels) were “(33.3) %”, “(35.7) %” and “(33.3) %”, respectively. For the same molecule, the “Surgical Results: Complete Resection” value in assay [5] (setting [6]) is reported as 93.3%; in assay [5] (setting [7]), “(93.3) %”; in assay [5] (setting [8]), 78.6%; in assay [5] (setting [9]) it was “(78.6) %”; in assay [5] (top quartile of BRCA1 levels) it was 83.3%; in assay [5] (setting [10]), “(83.3) %”. Moreover, the “Radiographic Response: Progressive Disease” value is listed as 0 N in assay [5] (bottom quartile of BRCA1 levels, number of patients); “(7.1) %” in assay [5] (setting [8]); “(8.3) %” in assay [5] (top quartile of BRCA1 levels).
As to `COc1cccc2c1C(=O)c1c(O)c3c(c(O)c1C2=O)C[C@@](O)(C(=O)CO)C[C@@H]3O[C@H]1C[C@H](N)[C@H](O)[C@H](C)O1` [doxorubicin], the “Sensitivity of BRCA1-disrupted mouse models” value in assay [4] is recorded as “highly sensitive”.
